# From PMC10917278, “Structural insights into the modulation Of SOD1 aggregation By a fungal metabolite Phialomustin-B: Therapeutic potential in ALS” (PLOS ONE, 2024)
# Target: T1, SOD1^WT (Homo sapiens, UniProt P00441)
# T1 construct: The full-length constructs of SOD1-wild type (aa: 1–145); His-tag (cleaved yes); made in house; host or cells: E. coli BL21 DE3
# Assay: Analytical size-exclusion chromatography (SEC) aggregation assay, SOD1^WT
# Type: biochemical
# Settings: PB 30X, reducing conditions
# Method: Fig 6 Aggregation studies of metallated and reduced SOD1^WT and SOD1^A4V on treatment with PB. ThT fluorescence was monitored during the co-incubation of metallated SOD1^WT (50 μM) (a) or SOD1^A4V (50 μM) (b) with PB at 1:30 molar ratio at 37 °C with continuous shaking, under reduced conditions. The values were normalized to the maximal ThT intensity elicited by SOD1^WT or SOD1^A4V and fitted to a Boltzmann sigmoidal equation. The control and PB-treated species were compared to analyse the effects of PB on the aggregation of SOD1^WT and SOD1^A4V. Error bars indicate the standard deviation. Analytical SEC of metallated SOD1^WT (50 μM) (c) and SOD1^A4V (50 μM) (d) with PB were analyzed under reducing conditions before and after 24 hrs and 48 hrs incubation at 37 °C. The first peak eluting at the volume was denoted as oligomerized SOD1^WT/SOD1^A4V (L). The second, third, and fourth peaks were calculated as trimer (T), dimer (D), and monomer (M) species of SOD1^WT/SOD1^A4V running at 14.5 ml, 15.7 ml, and 16.5 ml, respectively. […] The monomer (M), dimer (D), trimer (T), and large aggregate (L) species are shown as green, purple, red, and black dotted lines, respectively. All the experiments were performed for n = 3 biological replicates. […]
# Fig 7 Aggregation studies of de-metallated and reduced SOD1^WT and SOD1^A4V on treatment with PB. ThT fluorescence was monitored during the co-incubation of de-metallated SOD1^WT (50 μM) (a) or SOD1^A4V (50 μM) (b) with PB at 1:30 molar ratio at 37 °C with continuous shaking, under reduced conditions. […] Analytical SEC of de-metallated SOD1^WT (50 μM) (a) and SOD1^A4V (50 μM) (b) with PB were analysed under reducing conditions before and after 24 hrs and 48 hrs incubation at 37 °C. […] The second, third, and fourth peaks were calculated as trimer (T), dimer (D), and monomer (M) species of SOD1^WT/SOD1^A4V running at 14.5 ml, 15.7 ml, and 16.5 ml, respectively. […]
# [1] = Metallated SOD1^WT 50 μM, 24 and 48 hrs at 37 °C
# T1 sequence (P00441 whole entry): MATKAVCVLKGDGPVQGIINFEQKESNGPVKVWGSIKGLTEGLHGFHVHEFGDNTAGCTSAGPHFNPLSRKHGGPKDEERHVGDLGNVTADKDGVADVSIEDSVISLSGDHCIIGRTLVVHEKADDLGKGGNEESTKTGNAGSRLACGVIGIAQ
smiles,measurement,setting,value
"CCCC[C@H](C)/C=C(C)/C=C/C(=O)O [PB, (S, 2E, 4E)-4,6-dimethyldeca-2,4-dienoic acid]",formation of trimer species (SEC),"De-metallated (EDTA) SOD1^WT 50 μM, 48hrs",insignificantly reduced compared to the control
same,"formation of higher aggregates (SEC, eluting at 9.2 ml)",[1],may induce the formation of higher aggregates in a time-dependent manner
same,toxic trimer population (SEC),[1],time-dependent alleviation of toxic trimer population
